Assay results as given in PubChem BioAssay AID248 (DTP/NCI, 2004).
Several values for one entry are separate records, joined by “and”; a condition that tells them apart may be missing. Equal values may be shown once. Toxic doses and inconclusive results are not listed. Cut-off read from the data, not from the text of the source: active = T/C of 150% or more; inactive = T/C below 125%. Square brackets hold non-standard residues; d marks the D form. Peptide text beside a SMILES is read from it. * marks the point of attachment. ξ: configuration not given here. Cbz = O=C(OCc1ccccc1)*; ξP = O=C(O)C1CCCN1

Test system: L1210 leukemia ip in BDF1 mice, survival T/C
Assay: NCI In Vivo Anticancer Drug Screen. Data for tumor model L1210 Leukemia (intraperitoneal) in B6D2F1 (BDF1) mice
Settings: endpoint: mean survival time, higher = longer survival
Method in brief: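 Read-out is survival time, reported as the treated-group measurement over the vehicle-control measurement.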

[1] = dose: 100.0 mg/kg/injection, schedule: Q04DX003 (ip), vehicle: saline
[2] = dose: 200.0 mg/kg/injection, schedule: Q04DX003 (ip), vehicle: saline
[3] = dose: 400.0 mg/kg/injection, schedule: Q04DX003 (ip), vehicle: saline
[4] = dose: 100.0 mg/kg/injection, schedule: Q01DX009 (ip), vehicle: saline with Tween-80
[5] = dose: 100.0 mg/kg/injection, schedule: Q04DX003 (ip), vehicle: saline with Tween-80
[6] = dose: 200.0 mg/kg/injection, schedule: Q01DX009 (ip), vehicle: saline with Tween-80
[7] = dose: 200.0 mg/kg/injection, schedule: Q04DX003 (ip), vehicle: saline with Tween-80
[8] = dose: 400.0 mg/kg/injection, schedule: Q01DX009 (ip), vehicle: saline with Tween-80
[9] = dose: 400.0 mg/kg/injection, schedule: Q04DX003 (ip), vehicle: saline with Tween-80
[10] = dose: 400.0 mg/kg/injection, schedule: Q04DX002 (ip), vehicle: saline with Tween-80
[11] = dose: 100.0 mg/kg/injection, schedule: Q04DX002 (ip), vehicle: saline with Tween-80
[12] = dose: 200.0 mg/kg/injection, schedule: Q04DX002 (ip), vehicle: saline with Tween-80
[13] = dose: 50.0 mg/kg/injection, schedule: Q01DX001 (ip), vehicle: carboxymethylcellulose (CMC)
[14] = dose: 100.0 mg/kg/injection, schedule: Q01DX001 (ip), vehicle: carboxymethylcellulose (CMC)
[15] = dose: 200.0 mg/kg/injection, schedule: Q01DX001 (ip), vehicle: carboxymethylcellulose (CMC)
[16] = dose: 400.0 mg/kg/injection, schedule: Q01DX001 (ip), vehicle: carboxymethylcellulose (CMC)
[17] = dose: 100.0 mg/kg/injection, schedule: Q01DX001 (ip), vehicle: saline
[18] = dose: 100.0 mg/kg/injection, schedule: Q01DX009 (ip), vehicle: Klucel (hydroxypropylcellulose) (HPC)
[19] = dose: 200.0 mg/kg/injection, schedule: Q01DX009 (ip), vehicle: Klucel (hydroxypropylcellulose) (HPC)
[20] = dose: 50.0 mg/kg/injection, schedule: Q01DX009 (ip), vehicle: Klucel (hydroxypropylcellulose) (HPC)

Measured: T/C

CSC(N)=Nc1ccccc1
inactive: dose: 87.5 mg/kg/injection, schedule: Q01DX009 (ip), vehicle: saline 96 % of control | dose: 175.0 mg/kg/injection, schedule: Q01DX009 (ip), vehicle: saline 100 % of control

CCCCCCCN(CCCCCCC)C(=O)N(C)C
inactive: dose: 100.0 mg/kg/injection, schedule: Q04DX002 (sc), vehicle: olive oil, sesame oil, peanut oil 104 % of control | dose: 200.0 mg/kg/injection, schedule: Q04DX002 (sc), vehicle: olive oil, sesame oil, peanut oil 107 % of control | dose: 400.0 mg/kg/injection, schedule: Q04DX002 (sc), vehicle: olive oil, sesame oil, peanut oil 114 % of control

Clc1ccc2[nH]ncc2c1
inactive: dose: 100.0 mg/kg/injection, schedule: Q04DX002 (ip), vehicle: Klucel (hydroxypropylcellulose) (HPC) 88 % of control | dose: 200.0 mg/kg/injection, schedule: Q04DX002 (ip), vehicle: Klucel (hydroxypropylcellulose) (HPC) 98 % of control | dose: 400.0 mg/kg/injection, schedule: Q04DX002 (ip), vehicle: Klucel (hydroxypropylcellulose) (HPC) 98 % of control

CCCCCc1ccc(C(C)=O)cc1
inactive: [1] 100 % of control | [2] 114 % of control | [3] 114 % of control

CCOC(=O)C(=O)C1CCCC1=O (centres undefined)
inactive: [4] 102 % of control | [5] 92 % of control | [6] 98 % of control | [7] 100 % of control | [8] 96 % of control | [9] 94 % of control

NC(N)=N/N=C(\C=C\c1ccccc1)C(=O)O
inactive: dose: 240.0 mg/kg/injection, schedule: Q01DX Z (ip), vehicle: methylcellulose (MC) 102 % of control | dose: 360.0 mg/kg/injection, schedule: Q01DX Z (ip), vehicle: methylcellulose (MC) 100 % of control | dose: 480.0 mg/kg/injection, schedule: Q01DX Z (ip), vehicle: methylcellulose (MC) 96 % of control

[Si]c1cccc2ccccc12
inactive: dose: 25.6 mg/kg/injection, schedule: Q04DX002 (ip), vehicle: saline with Tween-80 97 % of control | dose: 64.0 mg/kg/injection, schedule: Q04DX002 (ip), vehicle: saline with Tween-80 97 % of control | dose: 160.0 mg/kg/injection, schedule: Q04DX002 (ip), vehicle: saline with Tween-80 97 % of control | [10] 101 % of control

C#CC1(O)CCCCCC1
inactive: [11] 95 % of control | [12] 100 % of control | [10] 92 % of control

CC(=O)Nc1ccc(N)c(NC(C)=O)n1
inactive: [1] 97 % of control | [2] 95 % of control | [3] 109 % of control

COc1ccc(Cl)cc1NC(=O)Oc1ccc(C(C)=O)cc1
inactive: dose: 100.0 mg/kg/injection, schedule: Q01DX001 (ip), vehicle: saline with Tween-80 100 % of control | [4] 97 % of control and 104 % of control | [11] 121 % of control | [5] 90 % of control | dose: 200.0 mg/kg/injection, schedule: Q01DX001 (ip), vehicle: saline with Tween-80 100 % of control | [6] 96 % of control | [12] 99 % of control | [7] 87 % of control | dose: 400.0 mg/kg/injection, schedule: Q01DX001 (ip), vehicle: saline with Tween-80 93 % of control | [8] 100 % of control and 86 % of control | [10] 99 % of control | [9] 99 % of control

O=C1C(Cl)=C(Nc2ccc(Cl)cc2)C(=O)c2ccccc21
inactive: [13] 95 % of control | [14] 89 % of control | [15] 98 % of control | [16] 93 % of control

COc1cc2c(cc1C(C)C)CCC1C(C)(C#N)CCCC21C (centres undefined)
inactive: [4] 96 % of control | [5] 100 % of control | [6] 89 % of control | [7] 96 % of control | [8] 92 % of control | [9] 100 % of control

O=C(O)c1cc2c(Br)cccc2c2cc(C(F)(F)F)ccc12
inactive: [5] 97 % of control | [7] 113 % of control

CCCCCCCCc1cc2c(c3c1CCCC3)CCC1CCCCC21 (centres undefined)
inactive: [17] 104 % of control | dose: 200.0 mg/kg/injection, schedule: Q01DX001 (ip), vehicle: saline 98 % of control | dose: 400.0 mg/kg/injection, schedule: Q01DX001 (ip), vehicle: saline 101 % of control

Clc1nc(Cl)c2c3c(sc2n1)CCCC3
inactive: dose: 100.0 mg/kg/injection, schedule: Q01DX001 (ip), vehicle: saline sonified 92 % of control | dose: 200.0 mg/kg/injection, schedule: Q01DX001 (ip), vehicle: saline sonified 107 % of control | dose: 400.0 mg/kg/injection, schedule: Q01DX001 (ip), vehicle: saline sonified 90 % of control

CCOC(=O)c1ccc(NC(=O)Oc2ccccc2F)cc1
inactive: [18] 91 % of control | [19] 98 % of control | dose: 400.0 mg/kg/injection, schedule: Q01DX009 (ip), vehicle: Klucel (hydroxypropylcellulose) (HPC) 96 % of control

Clc1nc(Cl)c(Nc2ccn[nH]2)nc1Cl
inactive: [4] 91 % of control | [6] 86 % of control | [8] 94 % of control

CCCCN(CCC#N)CCCC
inactive: dose: 25.0 mg/kg/injection, schedule: Q04DX003 (ip), vehicle: saline with Tween-80 111 % of control | dose: 29.5 mg/kg/injection, schedule: Q01DX009 (ip), vehicle: saline with Tween-80 107 % of control | dose: 50.0 mg/kg/injection, schedule: Q04DX003 (ip), vehicle: saline with Tween-80 105 % of control | dose: 59.0 mg/kg/injection, schedule: Q01DX009 (ip), vehicle: saline with Tween-80 107 % of control | [5] 97 % of control | dose: 118.0 mg/kg/injection, schedule: Q01DX009 (ip), vehicle: saline with Tween-80 108 % of control

CCCCCCCCCCCCCCCC[N+]1(Cc2ccccc2)CCOCC1
inactive: [20] 99 % of control | [18] 99 % of control

Fc1ccc(NC(=S)Nc2cc(Cl)cc(Cl)c2)cc1
inactive: dose: 7.5 mg/kg/injection, schedule: Q01DX Z (ip), vehicle: carboxymethylcellulose (CMC) 96 % of control | dose: 15.0 mg/kg/injection, schedule: Q01DX Z (ip), vehicle: carboxymethylcellulose (CMC) 93 % of control | dose: 30.0 mg/kg/injection, schedule: Q01DX Z (ip), vehicle: carboxymethylcellulose (CMC) 100 % of control | [13] 98 % of control | dose: 60.0 mg/kg/injection, schedule: Q01DX Z (ip), vehicle: carboxymethylcellulose (CMC) 87 % of control | dose: 75.0 mg/kg/injection, schedule: Q01DX Z (ip), vehicle: carboxymethylcellulose (CMC) 87 % of control | [14] 93 % of control | [15] 95 % of control

Nc1ccc2c(c1)-c1ccc(F)cc1C2
inactive: [14] 89 % of control | [15] 100 % of control | [16] 94 % of control

[O-][n+]1ccc(N2CCOCC2)cc1
inactive: [17] 100 % of control

O=C(NCC(=O)N1CCCC1C(=O)O)OCc1ccccc1 (stereo not drawn) (Cbz-Gly-[ξP]-OH)
inactive: [20] 93 % of control | dose: 50.0 mg/kg/injection, schedule: Q04DX003 (ip), vehicle: Klucel (hydroxypropylcellulose) (HPC) 96 % of control | [18] 97 % of control | dose: 100.0 mg/kg/injection, schedule: Q04DX003 (ip), vehicle: Klucel (hydroxypropylcellulose) (HPC) 91 % of control | [19] 93 % of control | dose: 200.0 mg/kg/injection, schedule: Q04DX003 (ip), vehicle: Klucel (hydroxypropylcellulose) (HPC) 93 % of control

CCCCCC1(O)C2CCCC1CCC2 (centres undefined)
inactive: [5] 94 % of control | [7] 97 % of control | [9] 105 % of control

CCCCO[Si](C)(C)CCl
inactive: [13] 101 % of control | [14] 101 % of control | [15] 106 % of control | [16] 97 % of control
